{"source": "patent US20190151236A1", "about": "“LIPOSOMAL CORTICOSTEROIDS FOR TOPICAL INJECTION IN INFLAMED LESIONS OR AREAS” (ENCELADUS PHARMACEUTICALS B.V., priority 2016, published 2019)", "key": {"cataract formation": {"tested_on": "cataract formation", "experiment": "Cataract formation on slit lamp biomicroscopy on day 31 (LOCS scale) in the rabbit uveitis study", "conditions": "day 31, slit lamp, FIG. 4", "protocol": "Clinical examination was performed by 2 masked independent investigators. Slit-lamp biomicroscopy, measurement of intraocular pressure with the Tonopen, photography of the anterior segment and dilated fundal examination with binocular indirect ophthalmoscopy using a 20D lens were performed prior to uveitis induction and at 8 defined time points thereafter (Days 0, 1, 3, 4, 8, 9, 11, 16, 24 and 31). Clinical severity of uveitis was scored by evaluating anterior chamber cells/flares, vitreous haze, and iris vessels. […] The combined anterior segment inflammatory score was defined as the sum of the scores for iris vessels, anterior chamber cells and anterior chamber flare. The presence of cataract was determined on slit lamp biomicroscopy on day 31 and graded based on the LOCS scale."}}, "note": "Like-named read-outs stand apart in the source and are kept apart here.", "data": [{"smiles": "C[C@]12C=CC(=O)C=C1CC[C@@H]1[C@@H]2[C@@H](O)C[C@@]2(C)[C@H]1CC[C@]2(O)C(=O)COP(=O)(O)O", "note": "[Free PP, prednisolone phosphate]", "values": [{"measurement": "Combined anterior segment inflammatory score", "setting": "experimental uveitis; Day 1 after 1st intravitreal induction, before intervention (baseline), mean ± SD, sum of iris congestion (0-3), anterior chamber cells (0-4), flare (0-3)", "value": "8.6 ± 0.5"}, {"measurement": "Combined anterior segment inflammatory score", "setting": "experimental uveitis; Day 3, at intervention (baseline, maximum inflammation)", "value": "8.0 ± 0.7"}, {"measurement": "Combined anterior segment inflammatory score", "setting": "experimental uveitis; Day 4, one day after intervention (single 0.1 ml subconjunctival injection 4 mg/ml, or eye drops 4 drops per day)", "value": "6.0 ± 0.7"}, {"measurement": "Combined anterior segment inflammatory score", "setting": "experimental uveitis; Day 8, 5 days after intervention, before 2nd intravitreal induction", "value": "3.2 ± 0.4"}, {"measurement": "Combined anterior segment inflammatory score", "setting": "experimental uveitis; Day 9, 1 day after 2nd intravitreal induction", "value": "8.0 ± 1.2"}, {"measurement": "Combined anterior segment inflammatory score", "setting": "experimental uveitis; Day 11, 3 days after rechallenge of intravitreal TB antigen", "value": "7.0 ± 2.3"}, {"measurement": "Combined anterior segment inflammatory score", "setting": "experimental uveitis; Day 16, 2 weeks post treatment", "value": "5.4 ± 1.3"}, {"measurement": "Combined anterior segment inflammatory score", "setting": "experimental uveitis; Day 24", "value": "2.8 ± 0.4"}, {"measurement": "Combined anterior segment inflammatory score", "setting": "experimental uveitis; Day 31", "value": "2.2 ± 1.3"}, {"measurement": "Cataract formation (posterior subcapsular cataracts)", "setting": "cataract formation", "value": "trend towards higher rates"}]}]}
